The source of these data is patent US20170008921A1, “C-3 NOVEL TRITERPENONE WITH C-28 REVERSE AMIDE DERIVATIVES AS HIV INHIBITORS” (HETERO RESEARCH FOUNDATION, priority 2015, published 2017).

A word on the viability: it is a per cent measure of how many cells are alive, often set against a control. A lower viability goes with more harm to the cells. In general, Cmax refers to the maximum level reached in the sampled fluid or tissue.

Series [1] can be described thus: Cyto-toxicity (MTT assay). It counts as cell-based. (In general: Tetrazolium assays rely on reduction of a dye to a coloured formazan, in cell work by metabolically active cells.)
The nature of series [2]: Single dose oral pharmacokinetic study. It counts as in vivo. Particulars: mouse, Mice oral PK @30 mg/kg, plasma, vehicle 10% Solutol+20% PEG; for AUC(0-t): read-out: AUC0-t; for Cmax: read-out: Cmax. The essentials:
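Rats or mice dosed orally at 30 mg/kg in 10% Solutol+20% PEG. Acetonitrile precipitation, then LC-MS/MS quantification for PK parameters.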

Turning to `Cc1ccc(NC(=O)NC(C)(C)C(=O)N[C@@]23CC[C@]4(C)[C@H](CC[C@@H]5[C@@]6(C)CC[C@H](OC(=O)[C@H]7C[C@@H](C(=O)O)C7(C)C)C(C)(C)[C@@H]6CC[C@]54C)C2=C(C(C)C)C(=O)C3)cn1` [Example 71, (1R,3S)-3-((((3aR,5aR,5bR,7aR,9S,11aR,11bR,13aS)-1-isopropyl-5a,5b,8,811a-pentamethyl-3a-(2-methyl-2-(3-(6-methylpyridin-3-yl)ureido)propanamido)-2-oxo-3,3a,4,5,5a,5b,6,7,7a,8,9,10,11,11a,11b,12,13,13a-octadecahydro-2H-cyclopenta[a]chrysen-9-yl)oxy)carbonyl)-2,2-dimethylcyclobutane-1-carboxylic acid], in series [1], the viability at 4 days, 0.01 µM amounted to 41%; the viability at 4 days, 0.1 µM came out at 5%; the viability at 4 days, 1 µM came out at 3%. In series [2], the AUC(0-t) stood at 130 µg·h/mL and the Cmax amounted to 19300 ng/mL.
In series [1], `CC(C)C1=C2[C@H]3CC[C@@H]4[C@@]5(C)CC[C@H](OC(=O)[C@H]6C[C@@H](C(=O)O)C6(C)C)C(C)(C)[C@@H]5CC[C@@]4(C)[C@]3(C)CC[C@@]2(NC(=O)C(C)(C)NC(=O)CN2CCCCC2)CC1=O` [Example 10, (1R,3S)-3-((((3aR,5aR,5bR,7aR,9S,11aR,11bR,13aS)-1-isopropyl-5a,5b,8,8,11a-pentamethyl-3a-(2-methyl-2-(2-(piperidin-1-yl)acetamido)propan amido)-2-oxo-3,3a,4,5,5a,5b,6,7,7a,8,9,10,11,11a,11b,12,13,13a-octadecahydro-2H-cyclopenta[a]chrysen-9-yl)oxy)carbonyl)-2,2-dimethylcyclobutane-1-carboxylic acid] gave a viability at 4 days, 0.01 µM of 67%; a viability at 4 days, 0.1 µM of 1%; a viability at 4 days, 1 µM of 0%. Moreover, in series [2], the AUC(0-t) worked out at 69.8 µg·h/mL and the Cmax is 9790 ng/mL.
In series [1], `CC(C)C1=C2[C@H]3CC[C@@H]4[C@@]5(C)CC[C@H](OC(=O)[C@H]6C[C@@H](C(=O)O)C6(C)C)C(C)(C)[C@@H]5CC[C@@]4(C)[C@]3(C)CC[C@@]2(NC(=O)C(C)(C)NC(=O)c2ccc3ccccc3n2)CC1=O` [Example 28, (1R,3S)-3-((((3aR,5aR,5bR,7aR,9S,11aR,11bR,13aS)-1-isopropyl-5a,5b,8,8,11a-pentamethyl-3a-(2-methyl-2-(quinoline-2-carboxamido)propanamido)-2-oxo-3,3a,4,5,5a,5b,6,7,7a,8,9,10,11,11a,11b,12,13,13a-octadecahydro-2H-cyclopenta[a]chrysen-9-yl)oxy)carbonyl)-2,2-dimethylcyclobutane-1-carboxylic acid] returned a viability at 4 days, 0.01 µM of 21%; a viability at 4 days, 0.1 µM of 10%; a viability at 4 days, 1 µM of 6%. Further, in series [2], the AUC(0-t) amounted to 345 µg·h/mL and the Cmax is 16200 ng/mL.
In the same order, the values of `Cc1cnc(C(=O)NC(C)(C)C(=O)N[C@@]23CC[C@]4(C)[C@H](CC[C@@H]5[C@@]6(C)CC[C@H](OC(=O)[C@H]7C[C@@H](C(=O)O)C7(C)C)C(C)(C)[C@@H]6CC[C@]54C)C2=C(C(C)C)C(=O)C3)cn1` [Example 7, (1R,3S)-3-((((3aR,5aR,5bR,7aR,9S,11aR,11bR,13aS)-1-isopropyl-5a,5b,8,8,11a-pentamethyl-3a-(2-methyl-2-(5-methylpyrazine-2-carboxamido)propanamido)-2-oxo-3,3a,4,5,5a,5b,6,7,7a,8,9,10,11,11a,11b,12,13,13a-octadecahydro-2H-cyclopenta[a]chrysen-9-yl)oxy)carbonyl)-2,2-dimethylcyclobutane-1-carboxylic acid] are 28%, 9%, 0%, 517 µg·h/mL and 41900 ng/mL.
